Earlier results in patent US20110287437A1, “ASSAYS TO PREDICT CARDIOTOXICITY” (priority 2010, published 2011).

Columns and labels:
[1] = assessment from public literature and internal data; training set N=19
[2] = treatment of patients; prescribing information

| Compound | Cardiotoxicity [1] | Cardiotoxicity / adverse cardiac effects reported [2] |
| --- | --- | --- |
| COc1ccc2c(O[C@@H]3C[C@H]4C(=O)N[C@]5(C(=O)O)C[C@H]5/C=C\CCCCC[C@H](NC(=O)OC5CCCC5)C(=O)N4C3)cc(-c3csc(NC(C)C)n3)nc2c1 [BILN 2061] | Positive | – |
| COc1cccc2c1C(=O)c1c(O)c3c(c(O)c1C2=O)C[C@@](O)(C(=O)CO)C[C@@H]3O[C@H]1C[C@H](N)[C@H](O)[C@H](C)O1 [Doxorubicin] | Positive | – |
| CO[C@H]1C[C@@H]2CC[C@@H](C)[C@@](O)(O2)C(=O)C(=O)N2CCCC[C@H]2C(=O)O[C@H]([C@H](C)C[C@@H]2CC[C@@H](OCCO)[C@H](OC)C2)CC(=O)[C@H](C)/C=C(\C)[C@@H](O)[C@@H](OC)C(=O)[C@H](C)C[C@H](C)/C=C/C=C/C=C/1C [Everolimus] | Positive | – |
| COc1cc2ncnc(Nc3ccc(F)c(Cl)c3)c2cc1OCCCN1CCOCC1 [Iressa] | Negative | – |
| CNC(=O)c1cc(Oc2ccc(NC(=O)Nc3ccc(Cl)c(C(F)(F)F)c3)cc2)ccn1 [Nexavar, sorafenib] | Positive | mentioned in the prescribing information |
| Cc1cn(-c2cc(NC(=O)c3ccc(C)c(Nc4nccc(-c5cccnc5)n4)c3)cc(C(F)(F)F)c2)cn1 [Nilotinib] | Positive | – |
| Cc1nc(Nc2ncc(C(=O)Nc3c(C)cccc3Cl)s2)cc(N2CCN(CCO)CC2)n1 [Sprycel, dasatinib] | Positive | mentioned in the prescribing information |
| CCN(CC)CCNC(=O)c1c(C)[nH]c(/C=C2\C(=O)Nc3ccc(F)cc32)c1C [Sutent, sunitinib] | Positive | mentioned in the prescribing information |
| C#Cc1cccc(Nc2ncnc3cc(OCCOC)c(OCCOC)cc23)c1 [Tarceva] | Negative | – |
| CS(=O)(=O)CCNCc1ccc(-c2ccc3ncnc(Nc4ccc(OCc5cccc(F)c5)c(Cl)c4)c3c2)o1 [Tykerb] | Negative | – |
| COc1cc2c(Nc3ccc(Br)cc3F)ncnc2cc1OCC1CCN(C)CC1 [Zactima] | Positive | – |
| bevacizumab: bevacizumab (Avastin) | – | mentioned in the prescribing information |
